Test results taken from ChEMBL document CHEMBL5137097, “A Warhead Substitution Study on the Coronavirus Main Protease Inhibitor Nirmatrelvir” (ACS Med Chem Lett, 2022).

Key:
[1] = Antiviral activity against Human coronavirus 229E infected in human MRC5 cells assessed as […] cell viability measured after 4 days by CellTiter-Glo luminescence assay; assay type: functional, cell-based; settings: MRC5, 96 h
[2] = target: Replicase polyprotein 1ab (Severe acute respiratory syndrome coronavirus 2, UniProt P0DTD1); test: Inhibition of full length SARS-CoV-2 3CLpro expressed in Escherichia coli BL21 (DE3) cells using (DABCYL)KTSAVLQSGFRKM(Glu)(EDANS) peptide as substrate preincubated for 30 mins followed by substrate addition and measured after 1.5 hrs by FRET assay
[3] = target: Replicase polyprotein 1ab (Human coronavirus 229E, UniProt P0C6X1); test: Inhibition of full length C terminal His-tagged Human coronavirus 229E 3CLpro expressed in Escherichia coli Rosetta (DE3) cells using (DABCYL)KTSAVLQSGFRKM(Glu)(EDANS) peptide as substrate preincubated for 30 mins followed by substrate addition and measured after 1.5 hrs by FRET assay
Chain of Replicase polyprotein 1ab (Human coronavirus 229E, UniProt P0C6X1) (P0C6X1 2966-3267 limits assumed): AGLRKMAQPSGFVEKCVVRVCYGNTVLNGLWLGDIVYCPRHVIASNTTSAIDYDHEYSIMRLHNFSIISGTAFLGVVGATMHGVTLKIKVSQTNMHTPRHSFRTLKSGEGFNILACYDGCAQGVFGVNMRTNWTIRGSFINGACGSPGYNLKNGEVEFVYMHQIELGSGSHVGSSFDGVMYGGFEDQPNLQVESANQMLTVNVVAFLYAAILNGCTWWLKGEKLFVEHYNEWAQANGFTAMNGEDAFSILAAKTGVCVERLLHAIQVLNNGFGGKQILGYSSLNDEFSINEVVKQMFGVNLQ

Structure (SMILES) | EC50 [1] [nM] | IC50 [2] [nM] | IC50 [3] [nM]
CC(C)(C)[C@H](NC(=O)C(F)(F)F)C(=O)N1C[C@H]2[C@@H]([C@H]1C(=O)N[C@H](C#N)C[C@@H]1CCNC1=O)C2(C)C | 212 | – | –
CC(C)(C)[C@H](NC(=O)C(F)(F)F)C(=O)N1C[C@H]2[C@@H]([C@H]1C(=O)N[C@H](C=O)C[C@@H]1CCNC1=O)C2(C)C | 770 | 10 | 16
CC(C)(C)[C@H](NC(=O)C(F)(F)F)C(=O)N1C[C@H]2[C@@H]([C@H]1C(=O)NCCC1CCNC1=O)C2(C)C (some centres not stated) | – | > 100000 | > 100000
CC(C)(C)[C@H](NC(=O)C(F)(F)F)C(=O)N1C[C@H]2[C@@H]([C@H]1C(=O)N[C@H](CO)C[C@@H]1CCNC1=O)C2(C)C | – | > 100000 | > 100000
CC(C)(C)[C@H](NC(=O)C(F)(F)F)C(=O)N1C[C@H]2[C@@H]([C@H]1C(=O)N[C@@H](C[C@@H]1CCNC1=O)C(=O)CO)C2(C)C | 193 | – | 13
CC(C)(C)[C@H](NC(=O)C(F)(F)F)C(=O)N1C[C@H]2[C@@H]([C@H]1C(=O)N[C@@H](C[C@@H]1CCNC1=O)C(=O)C(=O)NC1CC1)C2(C)C | 2360 | 19 | 70
CC(C)(C)[C@H](NC(=O)C(F)(F)F)C(=O)N1C[C@H]2[C@@H]([C@H]1C(=O)N[C@@H](C[C@@H]1CCNC1=O)C(N)=O)C2(C)C | – | > 100000 | > 100000
CC(C)(C)[C@H](NC(=O)C(F)(F)F)C(=O)N1C[C@H]2[C@@H]([C@H]1C(=O)N[C@@H](C[C@@H]1CCNC1=O)C(=O)COCc1ccccc1)C2(C)C | 513 | 27 | 467
COC(=O)[C@H](C[C@@H]1CCNC1=O)NC(=O)[C@@H]1[C@@H]2[C@H](CN1C(=O)[C@@H](NC(=O)C(F)(F)F)C(C)(C)C)C2(C)C | – | > 100000 | > 100000
CC(C)(C)[C@H](NC(=O)C(F)(F)F)C(=O)N1C[C@H]2[C@@H]([C@H]1C(=O)N[C@@H](C[C@@H]1CCNC1=O)C(=O)c1nc3ccccc3s1)C2(C)C | 242 | – | 239
